Measurements as given in the supplement of paper PMC10307832.

Key:
Assay in all cases: relative viability (nuclei count vs DMSO), 5 days (fraction); higher = more cells survive
[1] = compound: Nc1ncn([C@H]2C[C@H](O)[C@@H](CO)O2)c(=O)n1 [Decitabine] + O=C(c1cc(Cc2n[nH]c(=O)c3ccccc23)ccc1F)N1CCN(C(=O)C2CC2)CC1 [Olaparib] (partner 8 µM)
In short: (§1)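 Lung cancer cell lines in 1536-well plates got either a single drug or a fixed anchor-drug dose together with five library-drug doses (not always all listed) in √10 steps, by pin tool, on the day after seeding. Nuclei were counted after 5 days, and relative viability is the treated-to-vehicle ratio of nuclei counts. Values are medians of duplicate plates.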

[2] = compound: COc1cc2c(Oc3ccc4[nH]c(C)cc4c3F)ncnc2cc1OCCCN1CCCC1 [Cediranib] + CS(=O)(=O)N1CCN(Cc2cc3nc(-c4cccc5[nH]ncc45)nc(N4CCOCC4)c3s2)CC1 [Pictilisib] (partner 1 µM)
In short: as §1

[3] = compound: COc1cc2c(Oc3ccc4[nH]c(C)cc4c3F)ncnc2cc1OCCCN1CCCC1 [Cediranib] + COc1cccc2cc(-c3nc([C@H]4CC[C@H](C(=O)O)CC4)n4ncnc(N)c34)[nH]c12 [OSI-027] (partner 0.5 µM)
In short: as §1

[4] = compound: Nc1ncn([C@H]2C[C@H](O)[C@@H](CO)O2)c(=O)n1 [Decitabine] + Cc1nc(NC(=O)N2CCC[C@H]2C(N)=O)sc1-c1ccnc(C(C)(C)C(F)(F)F)c1 [Alpelisib] (partner 2 µM)
In short: as §1

| Cell Line | relative viability ([1]; first compound 0.04 µM) | relative viability ([1]; first compound 0.1265 µM) | relative viability ([1]; first compound 0.4 µM) | relative viability ([1]; first compound 4 µM) | relative viability ([2]; first compound 0.04 µM) | relative viability ([2]; first compound 0.1265 µM) | relative viability ([2]; first compound 0.4 µM) | relative viability ([2]; first compound 1.265 µM) | relative viability ([2]; first compound 4 µM) | relative viability ([3]; first compound 0.04 µM) | relative viability ([3]; first compound 0.1265 µM) | relative viability ([3]; first compound 0.4 µM) | relative viability ([3]; first compound 1.265 µM) | relative viability ([3]; first compound 4 µM) | relative viability ([4]; first compound 0.04 µM) | relative viability ([4]; first compound 0.1265 µM) | relative viability ([4]; first compound 0.4 µM) | relative viability ([4]; first compound 1.265 µM) | relative viability ([4]; first compound 4 µM) | relative viability ([1]; first compound 1.265 µM) |
| --- | --- | --- | --- | --- | --- | --- | --- | --- | --- | --- | --- | --- | --- | --- | --- | --- | --- | --- | --- | --- |
| 201T | 0.555 | 0.494 | 0.406 | 0.781 | 0.725 | 0.699 | 0.639 | 0.632 | 0.7 | 0.945 | 0.841 | 0.671 | 0.717 | 0.692 | 1 | 1.08 | 1.12 | 0.949 | 0.923 | – |
| A549 | 0.15 | 0.112 | 0.049 | 0.0404 | 0.538 | 0.628 | 0.485 | 0.477 | 0.532 | – | – | – | – | – | 0.647 | 0.56 | 0.494 | 0.214 | 0.165 | 0.0246 |
| A-427 | 0.474 | 0.443 | 0.281 | 0.217 | 0.716 | – | 0.608 | 0.573 | 0.707 | 0.515 | – | 0.339 | 0.361 | 0.405 | 0.695 | 0.462 | 0.303 | 0.265 | 0.232 | 0.248 |
| ABC-1 | – | 0.616 | 0.77 | 0.573 | 0.786 | 0.566 | 0.69 | – | 0.737 | 0.447 | 0.651 | 0.532 | – | 0.437 | 0.833 | 0.816 | 0.786 | 0.731 | 0.753 | 0.473 |
| BEN | 0.666 | 0.595 | 0.457 | 0.409 | 0.584 | 0.497 | 0.509 | 0.425 | 0.504 | 0.308 | – | 0.28 | 0.311 | 0.286 | 0.943 | 0.908 | 0.651 | 0.564 | 0.426 | 0.43 |
| CAL-12T | 0.438 | 0.412 | 0.257 | 0.227 | 0.431 | – | 0.438 | 0.319 | 0.501 | 0.814 | 0.568 | 0.624 | 0.416 | 0.992 | 0.686 | 0.997 | 0.793 | 0.514 | 0.34 | 0.266 |
| COR-L23 | 0.166 | 0.181 | 0.177 | 0.119 | 0.75 | 0.821 | 0.775 | 0.501 | 0.783 | 0.913 | 0.767 | 0.738 | 0.675 | 0.872 | 0.412 | 0.346 | 0.311 | 0.225 | 0.213 | 0.143 |
| COR-L 105 | 0.609 | 0.546 | 0.524 | 0.403 | – | 0.434 | 0.332 | 0.376 | 0.403 | 0.6 | 0.904 | 0.553 | 0.552 | 0.601 | 0.763 | 0.873 | 0.717 | 0.427 | 0.306 | 0.505 |
| Calu-6 | 0.234 | 0.285 | 0.182 | 0.14 | 0.97 | 0.985 | 0.931 | 0.824 | 1.13 | – | – | – | – | – | 0.736 | 0.681 | 0.547 | 0.322 | 0.279 | 0.166 |
| ChaGo-K-1 | 0.28 | 0.28 | 0.222 | 0.242 | 0.805 | – | 0.7 | 0.852 | 0.639 | 0.441 | 0.363 | 0.535 | 0.572 | 0.615 | – | – | – | – | – | 0.198 |
| EBC-1 | 0.318 | 0.197 | 0.187 | 0.18 | 0.417 | 0.516 | 0.402 | 0.407 | 0.467 | – | – | – | – | – | 0.516 | 0.453 | 0.421 | 0.305 | 0.271 | 0.157 |
| EKVX | 0.551 | 0.454 | 0.322 | 0.232 | 0.408 | 0.563 | 0.427 | 0.487 | 0.383 | 0.759 | 0.809 | 0.681 | 0.684 | 0.723 | 0.635 | 0.565 | 0.522 | 0.393 | 0.318 | 0.252 |
| EMC-BAC-2 | – | 0.405 | 0.371 | 0.294 | 0.568 | 0.54 | 0.538 | 0.443 | 0.555 | 0.377 | 0.503 | 0.38 | 0.319 | 0.367 | 0.718 | 0.699 | 0.481 | 0.442 | 0.41 | 0.298 |
| EPLC-272H | 0.32 | 0.255 | – | 0.337 | 0.322 | – | 0.346 | 0.305 | 0.248 | 0.288 | – | 0.287 | – | 0.232 | 0.723 | 0.688 | – | 0.606 | 0.525 | 0.15 |
| H3255 | 0.487 | 0.469 | 0.415 | 0.378 | 0.533 | 0.525 | 0.409 | 0.494 | 0.446 | 0.658 | – | 0.638 | 0.58 | 0.533 | 0.222 | 0.579 | 0.358 | 0.428 | 0.436 | 0.43 |
| HARA | 0.379 | 0.248 | 0.28 | 0.168 | 0.269 | 0.684 | 0.393 | 0.481 | 0.37 | 0.367 | – | 0.446 | 0.353 | 0.657 | 0.73 | 0.749 | 0.474 | 0.365 | 0.249 | 0.147 |
| HCC-15 | 0.472 | 0.363 | 0.253 | 0.168 | 0.602 | – | 0.699 | 0.686 | 0.987 | 0.625 | – | 0.674 | 0.692 | 0.717 | 0.799 | 0.773 | 0.441 | 0.438 | 0.302 | 0.178 |
| HCC-44 | 0.808 | 0.738 | 0.627 | 0.757 | 0.589 | – | 0.552 | 0.669 | 0.714 | – | – | 0.447 | 0.473 | 0.619 | 0.66 | 0.779 | 0.253 | 0.462 | 0.336 | 0.739 |
